From patent US8798939B2, “Methods for designing, selecting and/or optimizing allosteric processing inhibitors for matrix metalloproteinases” (Janssen Pharmaceutica N.V., priority 2011, dated 2014) come the findings set out here.

This test addresses T1, proMMP9 activation to active MMP9 in HFL-1 cells (Homo sapiens, UniProt P14780).
T1 construct: endogenous in cells; host or cells: HFL-1 (ATCC CCL-153), TNFα plus 30 nM human neutrophil elastase
In words: Activation of proMMP9 by human fetal lung fibroblast (HFL-1) cultures (Western blot). Format: cell-based. The conditions noted are these: 3.3 μM, 72 hrs, mAb-L51/82. Here is the method: Example 2 was assessed additionally for ability to block the maturation of proMMP9 to active MMP9 in cultures of human fetal lung fibroblasts (HFL-1, American Type Culture Collection #CCL-153). Unlike rat synoviocytes, HFL-1 cells were unable to process proMMP9 to the active form without addition of neutrophil elastase. […] Rather, the function of elastase in this assay may be to inactivate tissue inhibitors of matrix metalloproteinases (TIMPs) that repress endogenous pathways of MMP9 activation (Skold, Liu et al. 1999).
HLF-1 were maintained in monolayer culture in DMEM with 10% FCS and were used between passage numbers 5-15. HLF-1 were embedded in collagen gels as described for rat SCW synoviocytes (vida supra). […] The plates were cultured an additional 72 hrs, at which time MMP9 secreted into the conditioned media was bound to gelatin-sepharose and evaluated by Western blot analysis as described for the rat synoviocyte cultures (vida supra). mAb-51/82 detected three forms of MMP9 in HFL-1 cultures.
A second experiment was performed to determine if the 80 kD form was mature active MMP9 and to determine the potency of Example 2 as an inhibitor of MMP9 maturation in this assay. […] In the absence of Example 2, pAb-1246 readily detected MMP9 with an electrophoretic mobility of approximately 80 kD. […]

T1 sequence (P14780 20-707 limits assumed): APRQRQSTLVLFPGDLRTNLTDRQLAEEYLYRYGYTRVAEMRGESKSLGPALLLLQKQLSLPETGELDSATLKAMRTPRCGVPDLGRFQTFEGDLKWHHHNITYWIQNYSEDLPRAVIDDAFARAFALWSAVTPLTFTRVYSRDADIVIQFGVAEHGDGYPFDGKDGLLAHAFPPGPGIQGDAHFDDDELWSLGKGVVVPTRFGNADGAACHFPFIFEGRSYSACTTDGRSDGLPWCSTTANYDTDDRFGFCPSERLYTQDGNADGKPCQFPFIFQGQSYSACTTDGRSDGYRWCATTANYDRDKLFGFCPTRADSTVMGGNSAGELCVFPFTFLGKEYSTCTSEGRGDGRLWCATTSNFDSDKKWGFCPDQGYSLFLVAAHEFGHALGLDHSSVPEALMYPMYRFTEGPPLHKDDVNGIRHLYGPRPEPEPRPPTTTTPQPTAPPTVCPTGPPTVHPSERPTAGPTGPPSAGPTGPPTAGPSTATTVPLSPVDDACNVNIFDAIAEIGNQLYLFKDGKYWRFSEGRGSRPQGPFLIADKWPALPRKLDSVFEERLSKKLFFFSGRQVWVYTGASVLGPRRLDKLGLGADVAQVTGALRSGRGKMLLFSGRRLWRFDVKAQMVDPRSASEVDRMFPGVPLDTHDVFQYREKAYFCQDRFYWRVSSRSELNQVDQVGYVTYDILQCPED

Take `Cc1nc(C)c(-c2csc(Nc3cc(S(N)(=O)=O)ccc3OC(C)C)n2)s1` [Example 2, 3-(2′,4′-Dimethyl-[4,5′]bithiazolyl-2-ylamino)-4-isopropoxy-benzenesulfonamide.HBr]: the “Signal Total” value was 91346 INT * mm^2.
